Assay [1] addresses T1, SERCA2a (sarco/endoplasmic reticulum calcium ATPase) (Canis lupus, UniProt O46674). As to the kind of experiment: live-cell intramolecular FRET lifetime dose-response. The class given is cell-based.
Assay [2] concerns the target T1, SERCA2a (sarco/endoplasmic reticulum calcium ATPase). The assay is described as above. In kind it is cell-based. This is another data set of the same source.

T1 sequence (O46674 whole entry): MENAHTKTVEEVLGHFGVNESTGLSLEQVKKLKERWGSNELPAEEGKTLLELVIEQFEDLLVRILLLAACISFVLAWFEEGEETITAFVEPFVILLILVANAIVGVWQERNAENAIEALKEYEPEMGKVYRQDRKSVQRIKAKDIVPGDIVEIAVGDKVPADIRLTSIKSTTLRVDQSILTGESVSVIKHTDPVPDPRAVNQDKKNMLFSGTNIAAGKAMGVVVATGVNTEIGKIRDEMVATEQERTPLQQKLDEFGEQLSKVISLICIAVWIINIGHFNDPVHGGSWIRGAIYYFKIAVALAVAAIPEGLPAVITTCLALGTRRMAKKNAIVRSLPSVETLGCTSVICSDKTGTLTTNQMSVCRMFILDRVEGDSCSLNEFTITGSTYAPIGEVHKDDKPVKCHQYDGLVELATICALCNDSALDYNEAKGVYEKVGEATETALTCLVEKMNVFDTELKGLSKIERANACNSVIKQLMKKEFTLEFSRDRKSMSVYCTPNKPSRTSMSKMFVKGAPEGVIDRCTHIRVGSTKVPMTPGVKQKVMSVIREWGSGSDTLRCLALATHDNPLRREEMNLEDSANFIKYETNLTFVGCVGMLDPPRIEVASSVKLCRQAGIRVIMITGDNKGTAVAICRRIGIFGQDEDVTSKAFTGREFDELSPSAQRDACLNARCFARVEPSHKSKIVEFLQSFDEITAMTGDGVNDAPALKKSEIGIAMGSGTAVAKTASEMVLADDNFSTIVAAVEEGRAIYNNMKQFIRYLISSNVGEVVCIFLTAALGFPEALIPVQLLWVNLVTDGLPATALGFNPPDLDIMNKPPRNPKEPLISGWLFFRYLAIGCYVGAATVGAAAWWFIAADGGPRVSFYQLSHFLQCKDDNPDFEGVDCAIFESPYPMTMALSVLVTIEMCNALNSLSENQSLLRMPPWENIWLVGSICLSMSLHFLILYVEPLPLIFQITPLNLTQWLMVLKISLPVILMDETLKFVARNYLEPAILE

For the compound `C/C=C(/C)C(=O)O[C@H]1C(C)=C2[C@H]([C@@H]1OC(=O)CCCCCCC)[C@@](C)(OC(C)=O)C[C@H](OC(=O)CCC)[C@@]1(O)[C@H]2OC(=O)[C@@]1(C)O` [TG, thapsigargin], in assay [1], the “live-cell intramolecular FRET lifetime dose-response; ATPase inhibition in pig c” value was 7.5 nM.

Regarding `CC(=O)C1=C(O)[C@@H]2[C@H]3c4c[nH]c5cccc(c45)C[C@H]3C(C)(C)N2C1=O` [CPA, cyclopiazonic acid], the Kd (in general, the equilibrium constant for the complex coming apart) in assay [2] is ~40 nM.

The record behind these values is publication PMC4013825 (Journal of biomolecular screening, 2014).
